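In this assay, cells in 96-well plates receive the compound at five concentrations for 48 hours. Endpoints are linearly interpolated between the surrounding concentrations. TGI is the concentration that stops growth completely.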

Our source for the TGI values is PubChem BioAssay (NCI).

Some test systems named below: LXFL 529 NSCLC; XF 498 CNS; DMS 114 small cell lung; DLD-1 colon; KM20L2 colon; SNB-78 CNS; HOP-18 NSCLC; DMS 273 small cell lung.
What all share (assay): DTP human tumour cell line panel, 48 h

Regarding `N#Cc1c2ccccc2cn1-c1ccc(F)cc1`, the TGI in the assay on LXFL 529 NSCLC, in the assay on XF 498 CNS, in the assay on DMS 114 small cell lung, in the assay on DLD-1 colon and in the assay with KM20L2 colon was above 100 µM each time.

On to `S=c1sc2c(Cl)nc(Cl)nc2n1-c1ccccc1`, for which the TGI in the assay with SNB-78 CNS was above 100 µM; in the assay with LXFL 529 NSCLC, 31.7 µM; with XF 498 CNS, above 100 µM; with DMS 114 small cell lung, 27.3 µM; in the assay with DLD-1 colon, 29.9 µM; in the assay on HOP-18 NSCLC, above 100 µM. Besides, the TGI in the assay on KM20L2 colon and in the assay on DMS 273 small cell lung was above 100 µM throughout.

On to `COc1cc(NS(C)(=O)=O)ccc1Nc1c2ccccc2nc2c1[nH]c1ccc(NC3OC(CO)C(O)C(O)C3O)cc12` (stereo not given), for which the TGI is 9.3 µM in the assay on SNB-78 CNS; 2.46 µM with LXFL 529 NSCLC; 0.832 µM with XF 498 CNS; 0.0784 µM in the assay with DMS 114 small cell lung; 1.93 µM in the assay on DLD-1 colon; 1.65 µM in the assay on HOP-18 NSCLC. Also, the TGI was found to be 1.87 µM in the assay with KM20L2 colon and 0.261 µM in the assay on DMS 273 small cell lung.

For `CN(C)CCC(=O)c1ccccc1`, the TGI with SNB-78 CNS is 69 µM; in the assay on LXFL 529 NSCLC it was 44.7 µM; in the assay with XF 498 CNS, 38.5 µM; in the assay with DMS 114 small cell lung, above 56.2 µM; in the assay with DLD-1 colon, 41 µM; in the assay with HOP-18 NSCLC it was above 68.9 µM. The TGI in the assay with KM20L2 colon was above 59.1 µM; in the assay on DMS 273 small cell lung, above 100 µM.

As for `CN=C1CC2c3cc(OC)c(OC)cc3CCN2C2=C1C(=O)CC(C)(C)C2` (stereo not given), the TGI in the assay with SNB-78 CNS, in the assay with LXFL 529 NSCLC, in the assay on DMS 114 small cell lung, in the assay with DLD-1 colon, in the assay with KM20L2 colon and in the assay with DMS 273 small cell lung was above 100 µM each time.

For `Cn1c(=O)n(C2(C)C[Se]C2)c2ccccc21`, the TGI in the assay with SNB-78 CNS, in the assay with LXFL 529 NSCLC, in the assay on DLD-1 colon, in the assay on KM20L2 colon and with DMS 273 small cell lung was above 100 µM throughout.
